Results on 19 compounds are retold here after patent US20170144969A1, “ANT[…], METHOD FOR PRODUCTION AND USES THEREOF” (priority 2014, published 2017).

Several values for one entry are separate records, joined by “and”; a condition that tells them apart may be missing. Equal values may be shown once. Read-outs that look alike come from different tables or passages of the source.

In series [1] the test system is Enterococcus faecium (ATCC 19634). Briefly: Minimum Inhibitory Concentration, micro-dilution broth. The settings on record: 24 h, 37° C., read-out: Minimum Inhibitory Concentration E. faceium. It is filed as cell-based. For orientation: Dilution methods test growth across graded concentrations, often in twofold steps.
In series [2] the test system is vancomycin resistant Enterococcus faecium (VRE) (ATCC 51559). The series is described as above. It counts as cell-based. The settings on record: 24 h, 37° C.
The subject of series [3] is Klebsiella pneumoniae (ATCC 700603). Described as above. It is filed as cell-based. To be noted: 24 h, 37° C.
Series [4] relates to S. aureus (MTCC 737). The description is as above. It counts as cell-based, Staphylococcus aureus. The settings on record: 37° C.
Series [5] has as its system E. coli (MTCC 443). Described as above. It is filed as cell-based. To be noted: 24 h, 37° C.
Series [6] deals with MRSA (ATCC 33591). Described as above. It is filed as cell-based, methicillin-resistant S. aureus. To be noted: 24 h, 37° C.
Series [7] relates to human Red Blood Cells. Kind of series: Haemolytic activity. To be noted: human RBCs, 1 h at 37° C.

`CCCCCCCCCC(=O)N(CCCNC(=O)[C@@H](N)Cc1ccccc1)CCCNC(=O)[C@@H](N)Cc1ccccc1.O=C(O)C(F)(F)F.O=C(O)C(F)(F)F` [Compound 1, N,N-bis-[{3-(^LPhe)amino}propyl]decanamide bis(trifluoroacetate)]: the MIC in series [1] is 36 µM; in series [2], 17 µM; in series [4] (24 h), 19 µM; in series [5], 24 µM. The “Minimum Inhibitory Concentration K. pneumonie” value in series [3] came out at 70 µM. Further, the “Minimum Inhibitory Concentration MRSA” value in series [6] stood at 25 µM. The same compound had an HC50 in series [7] (Table 3) of 232.
Consider `CCCCCCCCCCCCCC(=O)N(CCCNC(=O)[C@@H](N)Cc1ccccc1)CCCNC(=O)[C@@H](N)Cc1ccccc1.O=C(O)C(F)(F)F.O=C(O)C(F)(F)F` [Compound 3, N,N-bis-[{3-(^LPhe)amino}propyl]tetradecanamide bis(trifluoroacetate)], for which the MIC in series [1] was found to be 5.2 µM; in series [2] it was 2.8 µM; in series [4] (24 h) it was 7 µM; in series [5], 16 µM. The “Minimum Inhibitory Concentration K. pneumonie” value in series [3] was found to be 18 µM. In series [6], the “Minimum Inhibitory Concentration MRSA” value came to 4.8 µM. The same compound displayed an HC50 in series [7] (Table 3) of 144.
On to `CCCCCCCCCCCCCCCC(=O)N(CCCNC(=O)[C@@H](N)Cc1ccccc1)CCCNC(=O)[C@@H](N)Cc1ccccc1.O=C(O)C(F)(F)F.O=C(O)C(F)(F)F` [Compound 4, N,N-bis-[{3-(^LPhe)amino}propyl]hexadecanamide bis(trifluoroacetate)], for which the MIC in series [1] is reported as 8.5 µM; in series [2] it was 3 µM; in series [4] (24 h), 10 µM; in series [5], 225 µM. For the same compound, the “Minimum Inhibitory Concentration K. pneumonie” value in series [3] stood at 70 µM. The “Minimum Inhibitory Concentration MRSA” value in series [6] stood at 5.2 µM. The same compound showed an HC50 in series [7] (Table 3) of 83.
Regarding `CCCCCCCCCCCCCCCCCC(=O)N(CCCNC(=O)[C@@H](N)Cc1ccccc1)CCCNC(=O)[C@@H](N)Cc1ccccc1.O=C(O)C(F)(F)F.O=C(O)C(F)(F)F` [Compound 5, N,N-bis-[{3-(^LPhe)amino}propyl]octadecanamide bis(trifluoroacetate)], the MIC in series [1] was 11 µM; in series [2], 3.2 µM; in series [4] (24 h) it was 12 µM; in series [5], 270 µM. In addition, the “Minimum Inhibitory Concentration K. pneumonie” value in series [3] was 95 µM. In addition, in series [6], the “Minimum Inhibitory Concentration MRSA” value turned out to be 5.6 µM. Besides, in series [7] (Table 3), the HC50 worked out at 71.
On to `CCCCCCCCCCCCCC(=O)N(CCCNC(=O)[C@@H](N)Cc1c[nH]c2ccccc12)CCCNC(=O)[C@@H](N)Cc1c[nH]c2ccccc12.O=C(O)C(F)(F)F.O=C(O)C(F)(F)F` [Compound 7, N,N-bis-[{3-(^LTrp)amino}propyl]tetradecanamide bis(trifluoroacetate)], for which the MIC is listed as 2.5 µM in series [1], 2.7 µM in series [2], 2.5 µM in series [4] (24 h) and 39 µM in series [5].
`CCCCCCCCCCCCCCCC(=O)N(CCCNC(=O)[C@@H](N)Cc1c[nH]c2ccccc12)CCCNC(=O)[C@@H](N)Cc1c[nH]c2ccccc12.O=C(O)C(F)(F)F.O=C(O)C(F)(F)F` [Compound 8, N,N-bis-[{3-(^LTrp)amino}propyl]hexadecanamide bis(trifluoroacetate)]: the MIC in series [1] is given as 5.4 µM; in series [2], 7 µM; in series [4] (24 h), 6.5 µM; in series [5], above 257 µM.
On to `CCCCCCCCCCCCCCCC(=O)N(CCCNC(=O)[C@@H](N)CCCCN)CCCNC(=O)[C@@H](N)CCCCN.O=C(O)C(F)(F)F.O=C(O)C(F)(F)F` [Compound 12, N,N-bis-[{3-(^LLys)amino}propyl]hexadecanamide bis(trifluoroacetate)], for which the MIC in series [1] was determined as 1.1 µM; in series [2], 1 µM; in series [5], 5.4 µM. In series [3], the “Minimum Inhibitory Concentration K. pneumonie” value was 6.5 µM. In series [6], the “Minimum Inhibitory Concentration MRSA” value stood at 4.8 µM. Further, the HC50 in series [7] (Table 3) was found to be 264.
For the compound `CCCCCCCCCCCCCCCCCC(=O)N(CCCNC(=O)[C@@H](N)CCCCN)CCCNC(=O)[C@@H](N)CCCCN.O=C(O)C(F)(F)F.O=C(O)C(F)(F)F` [Compound 13, N,N-bis-[{3-(^LLys)amino}propyl]octadecanamide bis(trifluoroacetate)], the MIC in series [2] stood at 2.2 µM; in series [4] (24 h), 7.7 µM; in series [5], 8.4 µM. Besides, in series [3], the “Minimum Inhibitory Concentration K. pneumonie” value worked out at 7.5 µM. The “Minimum Inhibitory Concentration MRSA” value in series [6] amounted to 14 µM. This compound came in with an HC50 in series [7] (Table 3) of 108.
`CCCCCCCCCCCCCC(=O)N(CCCNC(=O)[C@@H](N)CCCN)CCCNC(=O)[C@@H](N)CCCN.O=C(O)C(F)(F)F.O=C(O)C(F)(F)F` [Compound 14, N,N-bis-[{3-(^LOrn)amino}propyl]tetradecanamide bis(trifluoroacetate)]: the MIC in series [1] is recorded as 5.2 µM; in series [2], 5.3 µM; in series [4] (24 h) it was 7.9 µM; in series [5], 6.6 µM.
In the same order, the values of `CCCCCCCCCCCCCCCC(=O)N(CCCNC(=O)[C@@H](N)CCCN)CCCNC(=O)[C@@H](N)CCCN.O=C(O)C(F)(F)F.O=C(O)C(F)(F)F` [Compound 15, N,N-bis-[{3-(^LOrn)amino}propyl]hexadecanamide bis(trifluoroacetate)] are 3.2 µM, 3 µM, 6.4 µM and 5.2 µM.
The like results for `CCCCCCCCCCCCCCCC(=O)N(CCCNC(=O)[C@H](N)CCCCN)CCCNC(=O)[C@H](N)CCCCN.O=C(O)C(F)(F)F.O=C(O)C(F)(F)F` [Compound 17, N,N-bis-[{3-(^DLys)amino}propyl]hexadecanamide bis(trifluoroacetate)] were, in that order, 2.7 µM, 2.2 µM, 3.9 µM and 4.8 µM.
On to `N[C@@H](Cc1ccccc1)C(=O)NCCCN(CCCNC(=O)[C@@H](N)Cc1ccccc1)C(=O)Cc1cccc2ccccc12` [Compound 21, N,N-bis-[{3-(^LPhe)amino}propyl]α-naphthylacetamide bis(trifluoroacetate)], for which the MIC in series [1] (Enterococcus faecium, ATCC19634, 24 h) was above 304 µM; in series [2], above 304 µM; in series [4] (Staphylococcus aureus, MTCC737, 24 h), above 304 µM; in series [5] (Escherichia coli, MTCC443), above 304 µM.
For `N[C@@H](Cc1ccccc1)C(=O)NCCCNCCCNC(=O)[C@@H](N)Cc1ccccc1.O=C(O)C(F)(F)F.O=C(O)C(F)(F)F.O=C(O)C(F)(F)F` [Compound 22, N^1-^LPhe-N^3-[{3-(^LPhe)amino}propyl]propane-1,3-diamine tris(trifluoroacetate)], the MIC in series [1], in series [2], in series [4] (24 h) and in series [5] was above 250 µM throughout. In addition, in series [3], the “Minimum Inhibitory Concentration K. pneumonie” value was above 250 µM. Also, the “Minimum Inhibitory Concentration MRSA” value in series [6] is above 250 µM.
On to `NCCCC[C@H](N)C(=O)NCCCNCCCNC(=O)[C@@H](N)CCCCN.O=C(O)C(F)(F)F.O=C(O)C(F)(F)F.O=C(O)C(F)(F)F` [Compound 23, N^1-^LLys-N^3-[{3-(^LLys)amino}propyl]propane-1,3-diamine tris(trifluoroacetate)], for which the MIC in series [1], in series [2], in series [4] (24 h) and in series [5] was above 250 µM throughout. Also, the “Minimum Inhibitory Concentration K. pneumonie” value in series [3] was above 250 µM. The “Minimum Inhibitory Concentration MRSA” value in series [6] was above 250 µM.
For the compound `CCCCCCCCCCCCCCCC(=O)N(CCCNC(=O)[C@@H](N)[C@@H](C)CC)CCCNC(=O)[C@@H](N)[C@@H](C)CC.O=C(O)C(F)(F)F.O=C(O)C(F)(F)F` [Compound 53, N,N-bis-[{3-(^LIle)amido}propyl]hexadecanamide bis(trifluoroacetate)], the MIC in series [1] was 3 µM; in series [2], 4.2 µM and 2.6 µM; in series [4] (24 h), 4 µM; in series [5], 26 µM. Further, the “Minimum Inhibitory Concentration MRSA” value in series [6] was 2.6 µM and 2.7 µM. In addition, the HC50 in series [7] (Table 6) was 60 µM.
As to `CCCCCCCCCCCCCC(=O)N(CCCNC(=O)[C@@H](N)CC(C)C)CCCNC(=O)[C@@H](N)CC(C)C.O=C(O)C(F)(F)F.O=C(O)C(F)(F)F` [Compound 55, N,N-bis-[{3-(^LLeu)amido}propyl]tetradecanamide bis(trifluoroacetate)], the MIC in series [1] came out at 4.2 µM; in series [4] (24 h) it was 3.6 µM; in series [5], 5.4 µM. For the same compound, the HC50 in series [7] (Table 6) is 118 µM.
For “N^1-octyl-N^3-(Boc-^LAla)-N^1-[3-{(Boc-^LAla)amino}propyl]propane-1,3-diamine tris(trifluoroacetate) [Compound 19]”, the MIC is listed as 313 µM in series [4] (24 h) and 343 µM in series [5].
In the same order, the values of “N^1-octyl-N^3-(Boc-^LLys)-N^1-[3-{(Boc-^LLys)amino}propyl]propane-1,3-diamine tris(trifluoroacetate) [Compound 20]” are 86 µM and 133 µM.
Turning to “N^1-octyl-N^3-(Boc-^LPhe)-N^1-[3-{(Boc-^LPhe)amino}propyl]propane-1,3-diamine tris(trifluoroacetate) [Compound 18]”, the MIC in series [4] (24 h) worked out at 38 µM; in series [5], 68 µM.
